The target of assay [1] is T1, αvβ6 (Homo sapiens, UniProt P06756+P18564).
T1 construct: endogenous in cells; host or cells: HT-29 cells
Kind of assay: αvβ6 cell adhesion inhibition test (HT-29 cells on recombinant human LAP protein). To be noted: recombinant human LAP coating, 200 μM MnCl2, 1 hour, read-out: IC50 (rate of inhibition of cell adhesion, αvβ6). It is filed as cell-based. Put shortly:
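HT-29 cells in DMEM/0.1% BSA with 200 μM MnCl2 plus test compound, 1 h adhesion at 37 °C on plates coated with […] recombinant human LAP (BSA-blocked). Adherent cells crystal-violet stained and absorbance read; inhibition scaled between uncoated wells (100%) and DMSO (0%), IC50 derived and binned A–E.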

In assay [2] the test system is TGF-β activation (phosphorylated SMAD3). Kind of assay: TGF-β activation inhibition test (inhibition of SMAD3 phosphorylation in TFK-1 cells). It is filed as cell-based. To be noted: 48 h, fibronectin-coated plate, cultured 2 days, read-out: IC50 (rate of inhibition of phosphorylated SMAD3). The essentials: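 TFK-1 cells on fibronectin-coated wells cultured 2 days at 37° C. with compound in RPMI 1640 with 1% FBS. Phospho-SMAD3 (Ser423/425) measured by cellular kit as DeltaF; inhibition scaled between DMSO (0%) and 10 μM LY364947 (100%), and IC50 calculated.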

T1 sequence (P06756 31-889 limits assumed): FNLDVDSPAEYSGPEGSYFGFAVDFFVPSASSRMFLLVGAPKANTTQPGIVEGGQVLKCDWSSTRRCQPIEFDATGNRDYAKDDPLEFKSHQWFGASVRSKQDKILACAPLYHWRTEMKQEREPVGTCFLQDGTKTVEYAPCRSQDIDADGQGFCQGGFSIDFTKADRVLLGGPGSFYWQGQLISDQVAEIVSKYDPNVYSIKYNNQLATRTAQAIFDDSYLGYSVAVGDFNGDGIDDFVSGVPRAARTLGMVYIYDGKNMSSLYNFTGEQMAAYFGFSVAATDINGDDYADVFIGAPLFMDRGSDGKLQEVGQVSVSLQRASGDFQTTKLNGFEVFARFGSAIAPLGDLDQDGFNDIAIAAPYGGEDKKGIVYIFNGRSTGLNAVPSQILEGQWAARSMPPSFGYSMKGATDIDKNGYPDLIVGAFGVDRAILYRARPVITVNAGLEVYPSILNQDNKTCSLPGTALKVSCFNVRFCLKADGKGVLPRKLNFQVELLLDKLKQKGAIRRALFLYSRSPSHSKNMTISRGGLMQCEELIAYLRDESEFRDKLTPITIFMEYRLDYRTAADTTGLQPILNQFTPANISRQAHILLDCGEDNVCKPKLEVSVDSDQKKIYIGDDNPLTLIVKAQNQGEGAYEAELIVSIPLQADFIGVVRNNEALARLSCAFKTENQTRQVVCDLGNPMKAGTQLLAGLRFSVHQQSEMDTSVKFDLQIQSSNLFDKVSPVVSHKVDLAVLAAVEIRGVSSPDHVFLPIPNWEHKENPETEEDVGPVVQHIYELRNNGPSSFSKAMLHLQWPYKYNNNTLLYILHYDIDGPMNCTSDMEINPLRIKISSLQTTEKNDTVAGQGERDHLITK
T1 sequence (P06756 891-1048 limits assumed): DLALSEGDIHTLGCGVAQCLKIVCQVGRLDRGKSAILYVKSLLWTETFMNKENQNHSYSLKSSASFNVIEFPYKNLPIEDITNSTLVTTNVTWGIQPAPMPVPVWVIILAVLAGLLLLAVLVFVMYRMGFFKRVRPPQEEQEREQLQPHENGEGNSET
T1 sequence (P18564 22-788): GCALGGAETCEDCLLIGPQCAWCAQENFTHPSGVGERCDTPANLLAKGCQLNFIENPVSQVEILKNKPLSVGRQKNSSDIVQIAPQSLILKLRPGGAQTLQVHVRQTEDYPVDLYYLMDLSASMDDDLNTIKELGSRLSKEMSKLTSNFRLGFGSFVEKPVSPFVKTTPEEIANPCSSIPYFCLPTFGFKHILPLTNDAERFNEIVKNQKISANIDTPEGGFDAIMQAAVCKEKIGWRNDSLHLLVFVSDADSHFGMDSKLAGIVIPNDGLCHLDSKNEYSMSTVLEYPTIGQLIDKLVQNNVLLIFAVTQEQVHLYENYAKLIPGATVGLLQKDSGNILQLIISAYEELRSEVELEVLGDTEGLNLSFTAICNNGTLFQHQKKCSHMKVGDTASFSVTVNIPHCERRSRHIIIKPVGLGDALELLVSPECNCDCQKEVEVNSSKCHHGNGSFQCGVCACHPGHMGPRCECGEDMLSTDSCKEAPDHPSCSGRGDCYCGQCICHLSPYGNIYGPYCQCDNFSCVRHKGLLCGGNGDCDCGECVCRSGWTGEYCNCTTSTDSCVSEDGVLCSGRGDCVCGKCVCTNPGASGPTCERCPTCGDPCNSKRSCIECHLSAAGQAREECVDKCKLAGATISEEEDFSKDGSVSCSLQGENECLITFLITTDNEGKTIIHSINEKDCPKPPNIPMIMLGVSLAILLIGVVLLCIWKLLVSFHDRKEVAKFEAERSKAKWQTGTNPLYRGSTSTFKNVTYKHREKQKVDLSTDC

For `O=C(O)C[C@H](NC(=O)CNC(=O)c1cc(NC2=NCC(F)CN2)c2cn[nH]c2c1)c1cc(C(F)(F)F)ccc1F` (stereo partly drawn) [Example 11-(b), (3S)-3-(2-(4-((5-fluoro-1,4,5,6-tetrahydropyrimidin-2-yl)amino)-1H-indazole-6-carboxamido)acetamido)-3-(2-fluoro-5-(trifluoromethyl)phenyl)propanoic acid], the results for the IC50 in assay [1] and in assay [2] were below 3 nM and below 10 nM, respectively.

`O=C(O)C[C@H](NC(=O)CNC(=O)c1cc(NC2=NCC(F)CN2)c2cn[nH]c2c1)c1cccc(C(F)(F)F)c1` (stereo partly drawn) [Example 35-(b), (3S)-3-(2-(4-((5-fluoro-1,4,5,6-tetrahydropyrimidin-2-yl)amino)-1H-indazole-6-carboxamido)acetamido)-3-(3-(trifluoromethyl)phenyl)propanoic acid]: the IC50 was below 3 nM in assay [1] and 10 to 50 nM in assay [2].

As to `O=C(O)C[C@H](NC(=O)CNC(=O)c1cc(NC2=NCC(F)CN2)c2c(Cl)n[nH]c2c1)c1cc(Cl)cc(C(F)(F)F)c1` (stereo partly drawn) [Example 49-(b), (3S)-3-(2-(3-chloro-4-((5-fluoro-1,4,5,6-tetrahydropyrimidin-2-yl)amino)-1H-indazole-6-carboxamido)acetamido)-3-(3-chloro-5-(trifluoromethyl)phenyl)propanoic acid], the IC50 in assay [1] is below 3 nM; in assay [2], below 10 nM.

Turning to `Cc1cc(C)n(-c2cccc([C@H](CC(=O)O)NC(=O)CNC(=O)c3cc(NC4=NCC(F)CN4)c4cn[nH]c4c3)c2)n1` (stereo partly drawn) [Example 44-(b), (3S)-3-(3-(3,5-dimethyl-1H-pyrazol-1-yl)phenyl)-3-(2-(4-((5-fluoro-1,4,5,6-tetrahydropyrimidin-2-yl)amino)-1H-indazole-6-carboxamido)acetamido)propanoic acid], the IC50 in assay [1] is below 3 nM; in assay [2], below 10 nM.

With `O=C(O)C[C@H](NC(=O)CNC(=O)c1cc(NC2=NCCCN2)c2cn[nH]c2c1)c1cc(Cl)cc(C(F)(F)F)c1` [Example 51-(b), (S)-3-(3-chloro-5-(trifluoromethyl)phenyl)-3-(2-(4-((1,4,5,6-tetrahydropyrimidin-2-yl)amino)-1H-indazole-6-carboxamido)acetamido)propanoic acid], the IC50 in assay [1] lay in the range of 10 to 30 nM; in assay [2] it was 50 to 100 nM.

In the case of `O=C(O)C[C@H](NC(=O)CNC(=O)c1cc(NC2=NCC(F)CN2)c2cn[nH]c2c1)c1cc(Br)cc(C(F)(F)F)c1` (stereo partly drawn) [Example 2-(b), (3S)-3-(3-bromo-5-(trifluoromethyl)phenyl)-3-(2-(4-((5-fluoro-1,4,5,6-tetrahydropyrimidin-2-yl)amino)-1H-indazole-6-carboxamido)acetamido)propanoic acid], the IC50 in assay [1] is below 3 nM; in assay [2], below 10 nM.

With `O=C(O)C[C@H](NC(=O)CNC(=O)c1cc(NC2=NCC(F)CN2)cc2[nH]ncc12)c1cc(I)cc(C(F)(F)F)c1` (stereo partly drawn) [Example 54-(b), (3S)-3-(2-(6-((5-fluoro-1,4,5,6-tetrahydropyrimidin-2-yl)amino)-1H-indazole-4-carboxamido)acetamido)-3-(3-iodo-5-(trifluoromethyl)phenyl)propanoic acid], the IC50 in assay [1] is below 3 nM; in assay [2] it was below 10 nM.

`Cc1ccc([C@H](CC(=O)O)NC(=O)CNC(=O)c2cc(NC3=NCC(F)CN3)c3cn[nH]c3c2)cc1C(F)(F)F` (stereo partly drawn) [Example 14-(b), (3S)-3-(2-(4-((5-fluoro-1,4,5,6-tetrahydropyrimidin-2-yl)amino)-1H-indazole-6-carboxamido)acetamido)-3-(4-methyl-3-(trifluoromethyl)phenyl)propanoic acid]: the IC50 in assay [1] is below 3 nM; in assay [2] it was below 10 nM.

Turning to `O=C(O)C[C@H](NC(=O)CNC(=O)c1cc(NC2=NCC(F)CN2)c2cn[nH]c2c1)c1ccc(OC(F)F)cc1` (stereo partly drawn) [Example 46-(b), (3S)-3-(4-(difluoromethoxy)phenyl)-3-(2-(4-((5-fluoro-1,4,5,6-tetrahydropyrimidin-2-yl)amino)-1H-indazole-6-carboxamido)acetamido)propanoic acid], the IC50 in assay [1] was in the range of 3 to 10 nM; in assay [2], 50 to 100 nM.

In the case of `O=C(O)C[C@H](NC(=O)CNC(=O)c1cc(NC2=NCC(F)CN2)c2cn[nH]c2c1)c1cc(Cl)c(F)c(C(F)(F)F)c1` (stereo partly drawn) [Example 15-(b), (3S)-3-(3-chloro-4-fluoro-5-(trifluoromethyl)phenyl)-3-(2-(4-((5-fluoro-1,4,5,6-tetrahydropyrimidin-2-yl)amino)-1H-indazole-6-carboxamido)acetamido)propanoic acid], the IC50 in assay [1] was below 3 nM; in assay [2] it was below 10 nM.

`O=C(O)C[C@H](NC(=O)CNC(=O)c1cc(NC2=NCC(F)CN2)c2cn[nH]c2c1)c1cc(OC(F)(F)F)ccc1F` (stereo partly drawn) [Example 33-(b), (3S)-3-(2-(4-((5-fluoro-1,4,5,6-tetrahydropyrimidin-2-yl)amino)-1H-indazole-6-carboxamido)acetamido)-3-(2-fluoro-5-(trifluoromethoxy)phenyl)propanoic acid]: the IC50 in assay [1] is below 3 nM; in assay [2], below 10 nM.

A word on the IC50: it is the concentration at which inhibition is half-maximal.

The values are drawn from US20230192661A1, “1, 4, 5, 6-TETRAHYDROPYRIMIDINE-2-AMINE DERIVATIVE” (UBE Corporation, priority 2020, published 2023).
